Experimental data: patent publication US5786324A, “Synthetic peptides with bactericidal activity and endotoxin neutralizing activity for gram negative bacteria and methods for their use” (priority 1994, dated 1998)
Where two headings read alike, the source gives them in different places. No end group written: not given here.

Key:
[1] = test system: Pseudomonas aeruginosa type 1; format: cell-based; conditions: for Effective Dose Bactericidal pH 5.6 P. aeruginosa Molar Concentration: Table 5
Experimental: Bactericidal activity can be evaluated against a variety of bacteria such as Pseudomonas spp including aeruginosa and P. cepacia, E. coli B, and Staphylococcus aureus. The preferred organism is P. aeruginosa. Bactericidal activity is determined by identifying the effective dose for killing as the molar concentration of the peptide which results in at least a 60% killing of the bacteria, as determined by standard methods. Preferably, the peptide has an effective dose at a concentration of about 1×10^-4 M to about 1×10^-10 M, and more preferably 1×10^-7 M to 1×10^-9M . […] The effective dose for bactericidal activity of B/PI is seen at about […] . Bactericidal activity can also be determined by calculating a lethal dose 50 (LD50) using standard methods. The LD50 is that amount of peptide or protein that kills 50% of the bacteria when measured using standard dose response methods. A bactericidal peptide preferably has an LD50 of about 10^-4 M to about 10^-9 M , more preferably about 10^-7 to 10^-9 M .
(§1) The synthetically produced peptides were assayed for bactericidal activity against Pseudomonas aeruginosa, type 1, P. cepacia ATCC 25608, E. coli B, and Staphylococcus aureus 502A by standard methods.
(§2) Pseudomonas aeruginosa type 1 is a clinical isolate maintained in the laboratory since 1972. The isolate remains a smooth strain and was serotyped by the scheme of Homma. Homma, Jpn. J. Exp. Med., 46:329 (1976). A rough strain E. coli B and S. aureus 502A were obtained from Paul Quie, University of Minnesota. The characteristics of the S. aureus strain have been described in Shinefield et al., Amer. J. Dis. Chil., 105:646 (1963). Pseudomonas cepacia ATCC 25608 was purchased from the American Type Culture Collection in 1980. S. aureus and E. coli were maintained on nutrient agar plates and the Pseudomonas strains were maintained on blood agar plates.
(§3) Pyrogen-free solutions were used throughout this assay and all methods which follow. Log phase bacteria were prepared from a culture in brain heart infusion broth as previously described except that bacteria were washed and resuspended in saline with adjustment to an optical density at 650 nm which would yield 3×10^8 CFU/ml. Bacteria were then diluted 1:10 in 0.08M citrate phosphate buffer, pH 5.6 or pH 7.0, for use in the assay. S. aureus rapidly lost viability in the pH 5.6 buffer and was studied only at pH 7.0. Bactericidal activity was determined by dose response and where an LD50 is indicated, it was determined by linear regression.

P. cepacia ATCC 25608 = experiment: Bactericidal assay, P. cepacia; format: cell-based, Pseudomonas cepacia; conditions: P. cepacia
Experimental: as §1, §2, §3

E. coli B = experiment: Bactericidal assay, E. coli B; format: cell-based
Experimental: as §1, §2, §3

[2] = test system: Staphylococcus aureus 502A; format: cell-based
Experimental: as §1, §2, §3

Human lung fibroblasts = experiment: Toxicity for human lung fibroblasts, trypan blue exclusion; format: cell-based; conditions: 30 minutes; for Percent Viability DMEM: DMEM plus 10% FCS; for Percent Viability PBS: pH 7.4
Experimental: The synthetic peptides were assayed for toxicity to cultured eukaryotic cells. Human lung fibroblasts were grown in monolayers in Dulbecco's Modified Eagles' Medium (DMEM) with 10% fetal calf serum (FCS) and originated as primary cultures of lung mesenchymal cells. The cells were trypsinized, washed with either DMEM plus FCS or phosphate-buffered saline (PBS), pH 7.4, and incubated with peptide at a final cell concentration of 1×10^7 /ml. Nine volumes of cell suspension were diluted with one volume of 0.4% trypan blue and the cells were counted with a hemocytometer, while also determining the fraction of cells which were increased in permeability to dye. There was no significant loss of cell number due to exposure of the fibroblasts to peptide.
^a Viability was determined by trypan blue exclusion following
incubation of cells with peptide for 30 minutes in DMEM plus 10% FCS or i

E. coli 055: B5 LPS = experiment: Limulus amoebocyte lysate assay, neutralization of endotoxin; format: biochemical; conditions: for Effective Dose Endotoxin Neutralization (Molar Concentration): Table 8, LAL
Excerpt: The peptide selected can also have endotoxin neutralizing activity. […] Endotoxin neutralizing activity can also be measured by calculating an inhibitory dose 50 […] using standard does response methods. An inhibitory dose 50 is that amount of peptide that can inhibit 50% of the activity of endotoxin. Endotoxin activity can also be measured by determining the amount of release of tumor necrosis factor alpha (TNFα) from a macrophage cell line or by evaluating the symptoms of shock in animals. Peptides preferably neutralized endotoxin at a molar concentration of about 1×10^-4 M to about 10^-8 M , more preferably about 10^-5 M to about 10^-6 M .
The ability of synthetic peptides to neutralize endotoxin was detected with the E-TOXATE kit manufactured by Sigma Chemicals, St. Louis, Mo. […] Peptide was incubated with LPS at room temperature for 10 minutes in 100 μl of a 1:2 dilution of pyrogen-free saline, pH 6.4. The reaction was started by addition of 100 μl of amoebocyte lysate and the final volume was 200 μl.
^a The dose of peptide required to inhibit clotting of LAL by 100%.
Each tube contained 0.04 endotoxin units of E. coli LPS.

[3] = P. aeruginosa, pH 5.6, 1.2 × 10^-4 M
[4] = Table 7, dose required to inhibit clotting of LAL by 100%, 0.04 endotoxin units of E. coli LPS
[5] = P. aeruginosa, pH 5.6, 1.5 × 10^-5 M
[6] = P. aeruginosa, pH 5.6, 3.0 × 10^-5 M

## CC(C)C[C@H](NC(=O)[C@H](Cc1ccccc1)NC(=O)[C@H](CCCNC(=N)N)NC(=O)[C@H](CCCCN)NC(=O)[C@H](CCC(N)=O)NC(=O)[C@H](C)NC(=O)[C@H](CCCCN)NC(=O)[C@H](Cc1c[nH]c2ccccc12)NC(=O)[C@H](CCCCN)NC(=O)[C@@H](N)CS)C(=O)N[C@@H](CCCCN)C(=O)O [Peptide 2, ckwkaqkrflk]
[1]; type 1, 1.5e-6 M, pH 5.6
  % Killing of 5 × 10^6 Bacteria: 83%
P. cepacia ATCC 25608; pH 5.6, 1.5 × 10^-5 M
  % Killing of 5 × 10^6 Bacteria: 80%
P. cepacia ATCC 25608; pH 7.0, 1.5 × 10^-5 M
  % Killing of 5 × 10^6 Bacteria: 78%
E. coli B; E. coli B, pH 5.6, 1.5 × 10^-5 M, listed as C#90-99
  % Killing of 5 × 10^6 Bacteria: 98%
E. coli B; E. coli, pH 7.0, 1.5 × 10^-5 M
  % Killing of 5 × 10^6 Bacteria: 90%
[2]; 502A, 3e-5 M, pH 7
  % Killing of 5 × 10^6 Bacteria: 95%
Human lung fibroblasts; 1.5 × 10^-5 M
  Percent Viability DMEM: 98.4%
  Percent Viability PBS: 94.7%

## cefysenhhnp(g) [Peptide 3]
[1]; [3]
  % Killing of 5 × 10^6 Bacteria: 0%
[1]; P. aeruginosa, pH 7.0, 1.2 × 10^-4 M
  % Killing of 5 × 10^6 Bacteria: 0%
[1]; pH 5.6
  Effective Dose Bactericidal pH 5.6 P. aeruginosa Molar Concentration: -- (not active at concentrations of 1.2 × 10^-4 M or less)
P. cepacia ATCC 25608; pH 5.6, 1.2 × 10^-4 M
  % Killing of 5 × 10^6 Bacteria: 0%
P. cepacia ATCC 25608; pH 7.0, 1.2 × 10^-4 M
  % Killing of 5 × 10^6 Bacteria: 0%
E. coli B; E. coli, pH 5.6, 1.2 × 10^-4 M
  % Killing of 5 × 10^6 Bacteria: 0%
E. coli B; E. coli, pH 7.0, 1.2 × 10^-4 M
  % Killing of 5 × 10^6 Bacteria: 0%
[2]; S. aureus, pH 7.0, 1.2 × 10^-4 M
  % Killing of 5 × 10^6 Bacteria: 0%
E. coli 055: B5 LPS; 0.04 endotoxin units of E. coli 055: B5 LPS
  peptide concentration which neutralized endotoxin (100% inhibition of LPS-induced gelation): 120 µM
E. coli 055: B5 LPS; [4]
  Effective Dose (μg/0.2 ml): 34 μg/0.2 ml
  Effective Dose M (× 10^-4): 1.2 M (× 10^-4)
E. coli 055: B5 LPS
  Effective Dose Endotoxin Neutralization (Molar Concentration): 120 µM

## EFYSENHHNPKWKAQKRFLK [Peptide 18, efysenhhnpkwkaqkrflk]
[1]; type 1, 3.0e-5 M, pH 5.6
  % Killing of 5 × 10^6 Bacteria: 79%
Human lung fibroblasts; 1.5 × 10^-4 M
  Percent Viability DMEM: 98.8%
  Percent Viability PBS: 95.6%

## CC(C)C[C@H](NC(=O)[C@H](Cc1ccccc1)NC(=O)[C@H](CCCNC(=N)N)NC(=O)[C@H](CCCCN)NC(=O)[C@H](CCC(N)=O)NC(=O)[C@H](C)NC(=O)[C@H](CCCCN)NC(=O)[C@H](Cc1c[nH]c2ccccc12)NC(=O)[C@@H](N)CCCCN)C(=O)N[C@@H](CCCCN)C(=O)O [Peptide 5, kwkaqkrflk]
[1]; type 1, 1.5e-5 M, pH 5.6
  % Killing of 5 × 10^6 Bacteria: 75%
[1]; type 1, pH 5.6
  LD50 for P. aeruginosa: 8.2 µM
E. coli B; E. coli B, pH 5.6, 3.0 × 10^-5 M, listed as #90-99
  % Killing of 5 × 10^6 Bacteria: 31%
Human lung fibroblasts; 1.5 × 10^-4 M
  Percent Viability DMEM: 98.0%
  Percent Viability PBS: 89.4%

## kwkfkqralk [Peptide 26]
[1]; [5]
  % Killing of 5 × 10^6 Bacteria: 61%
[1]; pH 5.6
  Effective Dose Bactericidal pH 5.6 P. aeruginosa Molar Concentration: 1.5 × 10^-5 M
E. coli 055: B5 LPS
  Effective Dose Endotoxin Neutralization (Molar Concentration): 300 µM

## nanikisgkwkaqkrflkmsgnfdlsi [Peptide 22]
[1]; P. aeruginosa, pH 5.6, 6.0 × 10^-8 M
  % Killing of 5 × 10^6 Bacteria: 74%
[1]; pH 5.6
  Effective Dose Bactericidal pH 5.6 P. aeruginosa Molar Concentration: 6.0 × 10^-8 M
E. coli 055: B5 LPS
  Effective Dose Endotoxin Neutralization (Molar Concentration): 30 µM

## CEFYSENHHNPKWKAQKRFLK [Peptide 17, cefysenhhnpkwkaqkrflk]
[1]; type 1, 3.0e-6 M, pH 5.6
  % Killing of 5 × 10^6 Bacteria: 74%
E. coli B; E. coli B, pH 5.6, 3.0 × 10^-5 M
  % Killing of 5 × 10^6 Bacteria: 71%
Human lung fibroblasts; 1.5 × 10^-5 M
  Percent Viability DMEM: 99.2%
  Percent Viability PBS: 92.3%

## wkkfkqralk [Peptide 19]
[1]; [3]
  % Killing of 5 × 10^6 Bacteria: 65%
[1]; pH 5.6
  Effective Dose Bactericidal pH 5.6 P. aeruginosa Molar Concentration: 1.2 × 10^-4 M
[1]; pH 5.6, randomized sequence
  bactericidal activity, fold reduced versus the 90-99 peptide: 8 fold
E. coli 055: B5 LPS
  Effective Dose Endotoxin Neutralization (Molar Concentration): -- (not active at concentrations of 4.5 × 10^-4 M or less)

## iktkkflkkt [Peptide 24, reference compound]
[1]; [6]
  % Killing of 5 × 10^6 Bacteria: 72%
[1]; pH 5.6
  Effective Dose Bactericidal pH 5.6 P. aeruginosa Molar Concentration: 3.0 × 10^-5 M
E. coli 055: B5 LPS
  Effective Dose Endotoxin Neutralization (Molar Concentration): -- (not active at concentrations of 4.5 × 10^-4 M or less)

## kkkafrlakq [Peptide 28]
[1]; [6]
  % Killing of 5 × 10^6 Bacteria: 68%
[1]; pH 5.6
  Effective Dose Bactericidal pH 5.6 P. aeruginosa Molar Concentration: 3.0 × 10^-5 M
[1]; pH 5.6, P. aeruginosa
  bacterial killing activity compared with parent peptide (in words): little or no effect
E. coli 055: B5 LPS
  Effective Dose Endotoxin Neutralization (Molar Concentration): -- (not active at concentrations of 4.5 × 10^-4 M or less)

## isnanikisg [Peptide 30]
[1]; pH 5.6
  Effective Dose Bactericidal pH 5.6 P. aeruginosa Molar Concentration: -- (not active at concentrations of 1.2 × 10^-4 M or less)
E. coli 055: B5 LPS
  Effective Dose Endotoxin Neutralization (Molar Concentration): 450 µM

## flkmsgnfdl [Peptide 34]
[1]; pH 5.6
  Effective Dose Bactericidal pH 5.6 P. aeruginosa Molar Concentration: -- (not active at concentrations of 1.2 × 10^-4 M or less)
E. coli 055: B5 LPS
  Effective Dose Endotoxin Neutralization (Molar Concentration): 750 µM

## anikisgkwk [Peptide 31]
[1]; [6]
  % Killing of 5 × 10^6 Bacteria: 53%
[1]; pH 5.6
  Effective Dose Bactericidal pH 5.6 P. aeruginosa Molar Concentration: 3.0 × 10^-5 M
E. coli 055: B5 LPS
  Effective Dose Endotoxin Neutralization (Molar Concentration): 220 µM

## ktkckflkkc [Peptide 25, reference compound]
[1]; P. aeruginosa, pH 5.6, 6.0 × 10^-6 M
  % Killing of 5 × 10^6 Bacteria: 56%
[1]; pH 5.6
  Effective Dose Bactericidal pH 5.6 P. aeruginosa Molar Concentration: 6.0 × 10^-6 M
E. coli 055: B5 LPS
  Effective Dose Endotoxin Neutralization (Molar Concentration): -- (not active at concentrations of 4.5 × 10^-4 M or less)

## kkkwfrlakq [Peptide 21]
[1]; [5]
  % Killing of 5 × 10^6 Bacteria: 71%
[1]; pH 5.6
  Effective Dose Bactericidal pH 5.6 P. aeruginosa Molar Concentration: 1.5 × 10^-5 M
[1]; pH 5.6, P. aeruginosa
  bacterial killing activity compared with parent peptide (in words): retained biological activity
E. coli 055: B5 LPS
  Effective Dose Endotoxin Neutralization (Molar Concentration): -- (not active at concentrations of 4.5 × 10^-4 M or less)
